{
  "source": "PubChem BioAssay AID1259407",
  "about": "(Chemical Carcinogenesis Research Information System (CCRIS), 2018)",
  "tested_on": "CCRIS mutagenicity, Ames/micronucleus/aberration tests",
  "assay": "CCRIS mutagenicity studies",
  "conditions": "Test System: AMES SALMONELLA TYPHIMURIUM",
  "key": {"[1]": {"conditions": "Strain/Indicator: TA98, Metabolic Activation: HAMSTER, LIVER, S-9, AROCLOR 1254 (30%), Method: PREINCUBATION"}, "[2]": {"conditions": "Strain/Indicator: TA98, Metabolic Activation: NONE, Method: PREINCUBATION"}, "[3]": {"conditions": "Strain/Indicator: TA98, Metabolic Activation: RAT, LIVER, S-9, AROCLOR 1254 (30%), Method: PREINCUBATION"}, "[4]": {"conditions": "Strain/Indicator: TA100, Metabolic Activation: HAMSTER, LIVER, S-9, AROCLOR 1254 (30%), Method: PREINCUBATION"}, "[5]": {"conditions": "Strain/Indicator: TA100, Metabolic Activation: NONE, Method: PREINCUBATION"}, "[6]": {"conditions": "Strain/Indicator: TA100, Metabolic Activation: RAT, LIVER, S-9, AROCLOR 1254 (30%), Method: PREINCUBATION"}},
  "note": "Calls of active or inactive are those of the source. The rule behind the calls is not given here.",
  "data": [
    {"smiles": "CN1C[C@@H](O)c2cc3c(c4c2[C@H]1Cc1ccccc1-4)OCO3", "values": [
      {"measurement": "mutagenic call", "setting": "Strain/Indicator: TA98, Metabolic Activation: RAT, LIVER, S-9, PHENOBARBITAL AND BETA-NAPHTHOFLAVONE, Method: PREINCUBATION", "result": "active; positive"},
      {"measurement": "mutagenic call", "setting": "Strain/Indicator: TA100, Metabolic Activation: RAT, LIVER, S-9, PHENOBARBITAL AND BETA-NAPHTHOFLAVONE, Method: PREINCUBATION", "result": "active; positive"}
    ]},
    {"smiles": "Clc1cc2c3nc4[n-]c(nc5nc(nc6nc(nc([n-]3)c2c(Cl)c1Cl)-c1c(Cl)c(Cl)c(Cl)c(Cl)c1-6)-c1c(Cl)c(Cl)c(Cl)c(Cl)c1-5)c1c(Cl)c(Cl)c(Cl)c(Cl)c41.[Cu+2]", "values": [
      {"measurement": "mutagenic call", "setting": "[1]", "result": "active; positive"},
      {"measurement": "mutagenic call", "setting": "[2]", "result": "inactive; negative"},
      {"measurement": "mutagenic call", "setting": "[3]", "result": "active; positive"},
      {"measurement": "mutagenic call", "setting": "[4]", "result": "inactive; negative"},
      {"measurement": "mutagenic call", "setting": "[5]", "result": "inactive; negative"},
      {"measurement": "mutagenic call", "setting": "[6]", "result": "inactive; negative"}
    ]},
    {"smiles": "CCCCOc1cc(OC)ccc1C(=O)NOC(C)=O", "values": [
      {"measurement": "mutagenic call", "setting": "Strain/Indicator: TA100, Metabolic Activation: NONE, Method: STANDARD PLATE", "result": "active; positive"},
      {"measurement": "mutagenic call", "setting": "Strain/Indicator: TA100, Metabolic Activation: RAT, S-9, AROCLOR, Method: STANDARD PLATE", "result": "active; positive"}
    ]},
    {"smiles": "COc1cc(N)ccc1C", "values": [
      {"measurement": "mutagenic call", "setting": "[1]", "result": "active; positive"},
      {"measurement": "mutagenic call", "setting": "[2]", "result": "inactive; negative"},
      {"measurement": "mutagenic call", "setting": "[3]", "result": "active; positive"},
      {"measurement": "mutagenic call", "setting": "[4]", "result": "active; positive"},
      {"measurement": "mutagenic call", "setting": "[5]", "result": "inactive; negative"},
      {"measurement": "mutagenic call", "setting": "[6]", "result": "active; positive"}
    ]},
    {"smiles": "O=c1ccc2cc(O[C@@H]3O[C@H](CO)[C@@H](O)[C@H](O)[C@H]3O)c(O)cc2o1", "values": [
      {"measurement": "mutagenic call", "setting": "Strain/Indicator: TA92, Metabolic Activation: NONE, Method: SPOT TEST", "result": "inactive; negative"},
      {"measurement": "mutagenic call", "setting": "Strain/Indicator: TA92, Metabolic Activation: RAT, LIVER, S-9, AROCLOR 1254, Method: SPOT TEST", "result": "inactive; negative"},
      {"measurement": "mutagenic call", "setting": "Strain/Indicator: TA94, Metabolic Activation: NONE, Method: SPOT TEST", "result": "inactive; negative"},
      {"measurement": "mutagenic call", "setting": "Strain/Indicator: TA94, Metabolic Activation: RAT, LIVER, S-9, AROCLOR 1254, Method: SPOT TEST", "result": "inactive; negative"},
      {"measurement": "mutagenic call", "setting": "Strain/Indicator: TA97, Metabolic Activation: NONE, Method: SPOT TEST", "result": "inactive; negative"},
      {"measurement": "mutagenic call", "setting": "Strain/Indicator: TA97, Metabolic Activation: RAT, LIVER, S-9, AROCLOR 1254, Method: SPOT TEST", "result": "inactive; negative"},
      {"measurement": "mutagenic call", "setting": "Strain/Indicator: TA98, Metabolic Activation: NONE, Method: SPOT TEST", "result": "inactive; negative"},
      {"measurement": "mutagenic call", "setting": "Strain/Indicator: TA98, Metabolic Activation: RAT, LIVER, S-9, AROCLOR 1254, Method: SPOT TEST", "result": "inactive; negative"},
      {"measurement": "mutagenic call", "setting": "Strain/Indicator: TA100, Metabolic Activation: NONE, Method: SPOT TEST", "result": "inactive; negative"},
      {"measurement": "mutagenic call", "setting": "Strain/Indicator: TA100, Metabolic Activation: RAT, LIVER, S-9, AROCLOR 1254, Method: SPOT TEST", "result": "inactive; negative"},
      {"measurement": "mutagenic call", "setting": "Strain/Indicator: TA102, Metabolic Activation: NONE, Method: SPOT TEST", "result": "inactive; negative"},
      {"measurement": "mutagenic call", "setting": "Strain/Indicator: TA102, Metabolic Activation: RAT, LIVER, S-9, AROCLOR 1254, Method: SPOT TEST", "result": "inactive; negative"}
    ]}
  ]
}
